The IC50 is the concentration at which inhibition is half-maximal. The low end stands for greater potency, the high end for weaker potency.

From patent publication US8324245B2, “Quinoline derivative and quinazoline derivative inhibiting self-phosphorylation of hepatocytus proliferator receptor, and medicinal composition containing the same” (Kyowa Hakko Kirin Co., Ltd., priority 2001, dated 2012) come the findings set out here.

Assay [1] concerns the target T1, met (HGF receptor) in human gastric cancer cells MKN45 (Homo sapiens, UniProt P08581).
T1 construct: endogenous in cells; host or cells: MKN45 human gastric cancer cells
In words: Inhibitory activity against met-autophosphorylation using ELISA method (2), MKN45 cells, HGF-independent. It is filed as cell-based. In short, it runs like this:
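MKN45 cells, 3×10^4 per well in RPMI with 0.1% FCS overnight, were exposed to compound in DMSO for 1 h at 37 °C without HGF. Lysates were captured on anti-phosphotyrosine (PY20) plates, Met detected with anti-Met and peroxidase secondary antibody, absorbance at 450 nm.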
In general terms: ELISA stands for enzyme-linked immunosorbent assay.

The subject of assay [2] is Human gastric cancer cells (MKN 45). In words: Tumor growth inhibitory activity against various human tumor cells in nude mice: MKN 45. The class given is in vivo. The following applies: Mus musculus, MKN-45, po, 120 h, MKN45, Oral, 5 days; read-out: TGIR. As for the experimental part: Human gastric cancer cells (MKN 45) (obtained from RIKEN), human brain tumor cells (U87MG) (obtained from ATCC), human pancreatic cancer cells (KP4) (obtained from RIKEN), human pancreatic cancer cells (SUIT-2) (obtained from National Kyushu Cancer Center), and human signet-ring type gastric cancer cells (NUGC-4) (obtained from RIKEN), or human lung cancer cells (LC6) (obtained from Central Laboratories for Experimental Animals) were transplanted into nude mice. […] The test compound suspended in 0.5% methylcellulose was orally administered once or twice a day for 5 days. Only 0.5% methylcellulose was administered to the control group in the manner as in the test groups. Alternatively, the test compound dissolved in physiological saline (with a 1 N aqueous hydrochloric acid solution added thereto) was intraveneously injected once a day for 5 days, and only physiological saline (with a 1 N aqueous hydrochloric acid solution added thereto) was administered to the control group in the same manner as in the test groups. The tumor growth inhibition rate (TGIR) was calculated as follows: The tumor growth inhibition rate (TGIR)=(1−TX/CX)×100 wherein CX represents the relative tumor volume at the 5th day for the control group when the tumor volume at the day of the start of the administration was presumed to be 1; and TX represents the relative tumor volume for test compound administration groups.

Some results are limits rather than exact numbers.

T1 sequence (P08581 25-1390): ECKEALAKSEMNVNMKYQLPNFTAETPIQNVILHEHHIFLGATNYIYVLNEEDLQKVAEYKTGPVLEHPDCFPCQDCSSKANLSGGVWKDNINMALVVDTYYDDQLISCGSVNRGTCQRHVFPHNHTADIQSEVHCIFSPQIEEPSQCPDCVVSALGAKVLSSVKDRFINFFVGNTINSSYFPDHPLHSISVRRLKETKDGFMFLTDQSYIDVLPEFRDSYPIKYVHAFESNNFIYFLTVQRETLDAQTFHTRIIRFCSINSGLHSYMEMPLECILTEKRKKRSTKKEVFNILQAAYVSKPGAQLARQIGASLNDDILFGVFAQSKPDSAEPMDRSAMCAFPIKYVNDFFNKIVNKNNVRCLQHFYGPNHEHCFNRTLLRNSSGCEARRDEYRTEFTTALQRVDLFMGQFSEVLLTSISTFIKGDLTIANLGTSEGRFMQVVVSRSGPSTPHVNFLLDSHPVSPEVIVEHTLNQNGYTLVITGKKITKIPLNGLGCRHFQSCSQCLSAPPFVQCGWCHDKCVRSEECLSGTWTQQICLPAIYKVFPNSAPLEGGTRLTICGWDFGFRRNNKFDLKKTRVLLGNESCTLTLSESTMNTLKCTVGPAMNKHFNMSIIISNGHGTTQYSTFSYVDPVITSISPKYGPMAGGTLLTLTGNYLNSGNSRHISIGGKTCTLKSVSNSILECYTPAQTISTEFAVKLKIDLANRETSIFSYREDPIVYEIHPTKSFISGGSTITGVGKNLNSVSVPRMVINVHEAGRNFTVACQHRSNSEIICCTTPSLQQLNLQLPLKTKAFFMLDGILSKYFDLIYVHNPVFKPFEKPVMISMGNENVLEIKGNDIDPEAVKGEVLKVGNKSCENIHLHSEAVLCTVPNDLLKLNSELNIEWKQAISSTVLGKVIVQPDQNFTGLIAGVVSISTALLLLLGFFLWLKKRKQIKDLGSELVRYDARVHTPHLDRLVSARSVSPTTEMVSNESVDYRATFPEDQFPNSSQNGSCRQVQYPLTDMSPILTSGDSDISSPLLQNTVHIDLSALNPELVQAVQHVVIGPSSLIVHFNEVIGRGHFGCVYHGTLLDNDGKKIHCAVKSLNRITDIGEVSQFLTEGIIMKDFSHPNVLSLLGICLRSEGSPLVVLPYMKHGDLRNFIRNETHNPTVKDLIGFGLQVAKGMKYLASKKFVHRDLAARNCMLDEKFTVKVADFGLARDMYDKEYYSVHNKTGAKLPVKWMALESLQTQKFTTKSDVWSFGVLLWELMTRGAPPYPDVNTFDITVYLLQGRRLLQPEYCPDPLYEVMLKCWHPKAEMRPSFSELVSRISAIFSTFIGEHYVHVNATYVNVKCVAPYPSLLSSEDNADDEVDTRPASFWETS

`COc1cc2c(Oc3ccc(NC(=S)NC(=O)Cc4ccccc4)cc3F)ccnc2cc1OCC(O)CN1CCOCC1` (stereo not drawn) [Example 312, 1-{3-Fluoro-4-[7-(2-hydroxy-3-morpholin-4-yl-propoxy)-6-methoxy-quinolin-4-yloxy]-phenyl}-3-phenylacetyl-thiourea]: the IC50 in assay [1] turned out to be 19.1 nM. For the same molecule, in assay [2], the inhibition in vivo at 30 mg/kg was determined as 75%. The like results for `COc1cc2c(Oc3ccc(NC(=S)NC(=O)Cc4ccccc4)cc3F)ccnc2cc1OCC(O)CN1CCCCC1` (stereo not drawn) [Example 331] were, in that order, 22 nM and 40%. The like results for `COc1cc2c(Oc3ccc(NC(=S)NC(=O)Cc4ccc(F)cc4)cc3F)ccnc2cc1OCCN1CCC(CO)CC1` [Example 282, 1-(3-Fluoro-4-{7-[2-(4-hydroxymethyl-piperidin-1-yl)ethoxy]-6-methoxy-quinolin-4-yloxy}-phenyl)-3-[2-(4-fluoro-phenyl)-acetyl]-thiourea] were, in that order, 16.6 nM and 13%. The molecule `COc1cc2c(Oc3ccc(NC(=S)NC(=O)Cc4cccc(Cl)c4)cc3F)ccnc2cc1OCC(O)CN1CCOCC1` (stereo not drawn) [Example 320, 1-[2-(3-Chloro-phenyl)-acetyl]-3-{3-fluoro-4-[7-(2-hydroxy-3-morpholin-4-yl-propoxy)-6-methoxy-quinolin-4-yloxy]-phenyl}-thiourea] gave an IC50 in assay [1] of 14 nM. Further, the inhibition in vivo at 30 mg/kg in assay [2] was found to be 20%.

As for `COc1cc2c(Oc3ccc(NC(=S)NC(=O)Cc4ccccc4Cl)cc3F)ccnc2cc1OCC(O)CN1CCOCC1` (stereo not drawn) [Example 314, 1-[2-(2-Chloro-phenyl)-acetyl]-3-{3-fluoro-4-[7-(2-hydroxy-3-morpholin-4-yl-propoxy)-6-methoxy-quinolin-4-yloxy]-phenyl}-thiourea], in assay [1], it took 23.2 nM to reach half-maximal inhibition (IC50). In addition, in assay [2], the inhibition in vivo at 30 mg/kg was determined as 38%.

In assay [1], `COc1cc2c(Oc3ccc(NC(=S)NC(=O)Cc4cccc(F)c4)cc3Cl)ccnc2cc1OCCCN1CCOCC1` [Example 299, 1-{3-Chloro-4-[6-methoxy-7-(3-morpholin-yl-propoxy)-quinolin-4-yloxy]-phenyl}-3-[2-(3-fluoro-phenyl)-acetyl]-thiourea] displayed an IC50 of 43.5 nM. For the same molecule, the inhibition in vivo at 25 mg/kg in assay [2] is 14%. Molecule `COc1cc2c(Oc3ccc(NC(=S)NC(=O)Cc4ccccc4F)cc3F)ccnc2cc1OCCCN1CCOCC1` [Example 288, 1-{3-Fluoro-4-[6-methoxy-7-(3-morpholin-4-yl-propoxy)-quinolin-4-yloxy]-phenyl}-3-[2-(2-fluoro-phenyl)-acetyl]-thiourea] displayed an IC50 in assay [1] of 22.6 nM. Further, in assay [2], the inhibition in vivo at 30 mg/kg was 64%. The like results for `COc1cc2c(Oc3ccc(NC(=S)NC(=O)Cc4cccc(F)c4)cc3F)ccnc2cc1OCC(O)CN1CCOCC1` (stereo not drawn) [Example 323, 1-{3-Fluoro-4-[7-(2-hydroxy-3-morpholin-4-yl-propoxy)-6-methoxy-quinolin-4-yloxy]-phenyl}-3-[2-(3-fluoro-phenyl)-acetyl]-thiourea] were, in that order, under 10 nM and 34%. Consider `COc1cc2c(Oc3ccc(NC(=S)NC(=O)Cc4ccccc4C)cc3F)ccnc2cc1OCC(O)CN1CCOCC1` (stereo not drawn) [Example 333], for which, in assay [1], the IC50 was 21.1 nM. The inhibition in vivo at 30 mg/kg in assay [2] is 75%. For `COc1cc2c(Oc3ccc(NC(=S)NC(=O)Cc4ccc(F)cc4)cc3F)ccnc2cc1OCCN1CCOCC1` [Example 277, 1-{3-Fluoro-4-[6-methoxy-7-(2-morpholin-4-yl-ethoxy)-quinolin-4-yloxy]-phenyl}-3-[2-(4-fluorophenyl)-acetyl]-thiourea], in that order: 20.4 nM and 17%.

Regarding `COc1cc2c(Oc3ccc(NC(=S)NC(=O)Cc4ccccc4)cc3F)ccnc2cc1OCC(O)CN1CCCC1` (stereo not drawn) [Example 332, 1-{3-Fluoro-4-[7-(2-hydroxy-3-pyrrolidin-1-yl-propoxy)-6-methoxy-quinolin-4-yloxy]-phenyl}-3-(2-phenyl-acetyl)-thiourea], the IC50 in assay [1] turned out to be 14.2 nM. In addition, the inhibition in vivo at 30 mg/kg in assay [2] was 14%.

For the molecule `COc1cc2c(Oc3ccc(NC(=S)NC(=O)Cc4ccc(Cl)cc4)cc3F)ccnc2cc1OCC(O)CN1CCOCC1` (stereo not drawn) [Example 326, 1-[2-(4-Chloro-phenyl)-acetyl]-3-{3-fluoro-4-[7-(2-hydroxy-3-morpholin-4-yl-propoxy)-6-methoxy-quinolin-4-yloxy]-phenyl}-thiourea], the IC50 in assay [1] came out at 13.1 nM. Besides, in assay [2], the inhibition in vivo at 30 mg/kg worked out at 17%. In assay [1], `COc1cc2c(Oc3ccc(NC(=S)NC(=O)Cc4cccc(C)c4)cc3F)ccnc2cc1OCC(O)CN1CCOCC1` (stereo not drawn) [Example 334] returned a 50% inhibitory concentration (IC50) of 22.7 nM. Moreover, the inhibition in vivo at 30 mg/kg in assay [2] worked out at 65%.

Take `COc1cc2c(Oc3ccc(NC(=S)NC(=O)Cc4ccccc4F)cc3F)ccnc2cc1OCC(O)CN1CCOCC1` (stereo not drawn) [Example 315]: in assay [1], the IC50 turned out to be 21 nM. Further, the inhibition in vivo at 30 mg/kg in assay [2] came to 36%. Regarding `COc1cc2nccc(Oc3ccc(NC(=S)NC(=O)Cc4ccc(F)cc4)cc3Cl)c2cc1OC` [Example 73, 1-[3-chloro-4-(6,7-dimethoxyquinolin-4-yloxy)-phenyl]-3-[2-(4-fluorophenyl)acetyl]thiourea], inhibition in assay [1] was half-maximal at 28.1 nM (IC50). Consider `COc1cc2c(Oc3ccc(NC(=S)NC(=O)Cc4ccccc4F)cc3F)ccnc2cc1OCCN1CCOCC1` [Example 278, 1-{3-Fluoro-4-[6-methoxy-7-(2-morpholin-4-yl-ethoxy)-quinolin-4-yloxy]-phenyl}-3-[2-(2-fluoro-phenyl)-acetyl]-thiourea], for which, in assay [1], it took 25.1 nM to reach half-maximal inhibition (IC50). Still for that read-out and setting: in the case of `COc1cc2nccc(Oc3ccc(NC(=O)NC(=O)Cc4ccc(F)c(F)c4)c(F)c3)c2cc1OC` [Example 140, 1-[2-(3,4-difluorophenyl)acetyl]-3-[4-(6,7-dimethoxyquinolin-4-yloxy)-2-fluorophenyl]urea] it was 229 nM.

Take `COc1ccccc1CC(=O)NC(=S)Nc1ccc(Oc2ccnc3cc(OC)c(OC)cc23)c(F)c1` [Example 83, 1-[4-(6,7-dimethoxyquinolin-4-yloxy)-3-fluoro-phenyl]-3-[2-(2-methoxyphenyl)acetyl]thiourea]: the IC50 in assay [1] turned out to be 39.1 nM. Regarding `COc1cccc(CC(=O)NC(=S)Nc2ccc(Oc3ccnc4cc(OC)c(OC)cc34)c(F)c2)c1` [Example 181, 1-[4-(6,7-dimethoxyquinolin-4-yloxy)-3-fluorophenyl]-3-[2-(3-methoxyphenyl)acetyl]thiourea], the IC50 in assay [1] turned out to be 243 nM. Regarding `COc1cc2nccc(Oc3ccc(NC(=O)NC(=O)CSC4CCCC4)cc3Cl)c2cc1OC` [Example 116, 1-[3-chloro-4-(6,7-dimethoxyquinolin-4-yloxy)phenyl]-3-(2-cyclopentylsulfanylacetyl)urea], half-maximal inhibition in assay [1] (IC50) was put at 344 nM.

Take `COc1cc2nccc(Oc3ccc(NC(=O)NC(=O)CN4CCC(Cc5ccccc5)CC4)cc3F)c2cc1OC` [Example 120, 1-[2-(4-benzyl-piperidin-1-yl)acetyl]-3-[4-(6,7-dimethoxyquinolin-4-yloxy)-3-fluorophenyl]urea]: the IC50 in assay [1] was 1570 nM. On the same count and under the same terms, then `COc1cc2nccc(Oc3ccc(NC(=O)NC(=O)Nc4cccc(C#N)c4)cc3)c2cc1OC` [Example 239, N-(3-cyanophenyl)-({[4-(6,7-dimethoxy-quinolin-4-yloxy)anilino]carbonyl}amino)-methanamide], with 1580 nM.
